Measurements published in US20260262643A1, “HERBICIDAL BENZOXAZINES” (FMC CORPORATION, priority 2022, published 2026).

Tests used:
barnyardgrass [1] = assay: Test D flooded paddy test; format: in vivo, Echinochloa crus-galli; conditions: 250 g ai/ha, applied to paddy water, visual rating after 13 to 14 days, scale 0 to 100 (0 no effect, 100 complete control)
In short: (§1)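 Post-flood water application at the 2-leaf stage; 3 cm flood depth kept constant; visual control rating 0–100 after 13–14 days greenhouse growth.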

horseweed = assay: Test C postemergence; format: in vivo, Erigeron canadensis; conditions: 10 days, 0 to 100 scale (0 no effect, 100 complete control)
In short: (§2)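 Soil-applied (pre) and foliar (post, 1–2 leaf, 2–10 cm) sprays; surfactant-containing non-phytotoxic solvent vehicle; loam/sand substrate. Readout: visual % control at 10 d, greenhouse, versus untreated.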

blackgrass [2] = assay: Test C postemergence; format: in vivo, Alopecurus myosuroides; conditions: 10 days, 0 to 100 scale (0 no effect, 100 complete control)
In short: as §2

blackgrass [3] = assay: Test C preemergence; format: in vivo, Alopecurus myosuroides; conditions: for Blackgrass plant response rating: 500 g ai/ha, preemergence, 0 to 100 scale (0 no effect, 100 complete control); for Plant response rating, Blackgrass: Preemergence, 125 g ai/ha, 0 to 100 scale, 0 no effect, 100 complete control
In short: as §2

pigweed, palmer [4] = assay: Test C preemergence; format: in vivo, Amaranthus palmeri; conditions: for Pigweed, Palmer plant response rating: 500 g ai/ha, preemergence, 0 to 100 scale (0 no effect, 100 complete control); for Plant response rating, Pigweed, Palmer: Preemergence, 125 g ai/ha, 0 to 100 scale, 0 no effect, 100 complete control
In short: as §2

pigweed, palmer [5] = assay: Test C postemergence; format: in vivo, Amaranthus palmeri; conditions: 10 days, 0 to 100 scale (0 no effect, 100 complete control)
In short: as §2

ragweed [6] = assay: Test C preemergence; format: in vivo, Ambrosia artemisiifolia; conditions: for Ragweed plant response rating: 500 g ai/ha, preemergence, 0 to 100 scale (0 no effect, 100 complete control); for Plant response rating, Ragweed: Preemergence, 125 g ai/ha, 0 to 100 scale, 0 no effect, 100 complete control
In short: as §2

ryegrass, Italian [7] = assay: Test C preemergence; format: in vivo, Lolium multiflorum; conditions: for Ryegrass, Italian plant response rating: 500 g ai/ha, preemergence, 0 to 100 scale (0 no effect, 100 complete control); for Plant response rating, Ryegrass, Italian: Preemergence, 125 g ai/ha, 0 to 100 scale, 0 no effect, 100 complete control
In short: as §2

ryegrass, Italian [8] = assay: Test C postemergence; format: in vivo, Lolium multiflorum; conditions: Postemergence, 125 g ai/ha; 0 to 100 scale (0 no effect, 100 complete control), 10 days
In short: as §2

oat, wild [9] = assay: Test C preemergence; format: in vivo, Avena fatua; conditions: for Oat, Wild plant response rating: 500 g ai/ha, preemergence, 0 to 100 scale (0 no effect, 100 complete control); for Plant response rating, Oat, Wild: Preemergence, 125 g ai/ha, 0 to 100 scale, 0 no effect, 100 complete control
In short: as §2

soybean [10] = assay: Test C preemergence; format: in vivo, Glycine max; conditions: for Soybean plant response rating: 500 g ai/ha, preemergence, 0 to 100 scale (0 no effect, 100 complete control); for Plant response rating, Soybean: Preemergence, 125 g ai/ha, 0 to 100 scale, 0 no effect, 100 complete control
In short: as §2

rice = assay: Test D flooded paddy test; format: in vivo, Oryza sativa; conditions: 250 g ai/ha, applied to paddy water, visual rating after 13 to 14 days, scale 0 to 100 (0 no effect, 100 complete control)
In short: as §1

green foxtail [11] = assay: Test C preemergence; format: in vivo, Setaria viridis; conditions: for Foxtail, Green plant response rating: 500 g ai/ha, preemergence, 0 to 100 scale (0 no effect, 100 complete control); for Plant response rating, Foxtail, Green: Preemergence, 125 g ai/ha, 0 to 100 scale, 0 no effect, 100 complete control
In short: as §2

kochia [12] = assay: Test C postemergence; format: in vivo, Bassia scoparia; conditions: 10 days, 0 to 100 scale (0 no effect, 100 complete control)
In short: as §2

kochia [13] = assay: Test C preemergence; format: in vivo, Bassia scoparia; conditions: for Kochia plant response rating: 500 g ai/ha, preemergence, 0 to 100 scale (0 no effect, 100 complete control); for Plant response rating, Kochia: Preemergence, 125 g ai/ha, 0 to 100 scale, 0 no effect, 100 complete control
In short: as §2

barnyardgrass [14] = assay: Test C preemergence; format: in vivo, Echinochloa crusgalli; conditions: for Barnyardgrass plant response rating: 500 g ai/ha, preemergence, 0 to 100 scale (0 no effect, 100 complete control); for Plant response rating, Barnyardgrass: Preemergence, 125 g ai/ha, 0 to 100 scale, 0 no effect, 100 complete control
In short: as §2

green foxtail [15] = assay: Test C postemergence; format: in vivo, Setaria viridis; conditions: 10 days, 0 to 100 scale (0 no effect, 100 complete control)
In short: as §2

soybean [16] = assay: Test C postemergence; format: in vivo, Glycine max; conditions: Postemergence, 125 g ai/ha; 0 to 100 scale (0 no effect, 100 complete control), 10 days
In short: as §2

corn [17] = assay: Test C postemergence; format: in vivo, Zea mays; conditions: 10 days, 0 to 100 scale (0 no effect, 100 complete control)
In short: as §2

sedge, umbrella = assay: Test D flooded paddy test; format: in vivo, Cyperus difformis; conditions: 250 g ai/ha, applied to paddy water, visual rating after 13 to 14 days, scale 0 to 100 (0 no effect, 100 complete control)
In short: as §1

barnyardgrass [18] = assay: Test C postemergence; format: in vivo, Echinochloa crusgalli; conditions: 10 days, 0 to 100 scale (0 no effect, 100 complete control)
In short: as §2

ducksalad = assay: Test D flooded paddy test; format: in vivo, Heteranthera limosa; conditions: 250 g ai/ha, applied to paddy water, visual rating after 13 to 14 days, scale 0 to 100 (0 no effect, 100 complete control)
In short: as §1

wheat [19] = assay: Test C postemergence; format: in vivo, Triticum aestivum; conditions: Postemergence, 125 g ai/ha; 0 to 100 scale (0 no effect, 100 complete control), 10 days
In short: as §2

wheat [20] = assay: Test C preemergence; format: in vivo, Triticum aestivum; conditions: for Wheat plant response rating: 500 g ai/ha, preemergence, 0 to 100 scale (0 no effect, 100 complete control); for Plant response rating, Wheat: Preemergence, 125 g ai/ha, 0 to 100 scale, 0 no effect, 100 complete control
In short: as §2

corn [21] = assay: Test C preemergence; format: in vivo, Zea mays; conditions: for Corn plant response rating: 500 g ai/ha, preemergence, 0 to 100 scale (0 no effect, 100 complete control); for Plant response rating, Corn: Preemergence, 125 g ai/ha, 0 to 100 scale, 0 no effect, 100 complete control
In short: as §2

ragweed [22] = assay: Test C postemergence; format: in vivo, Ambrosia artemisiifolia; conditions: Postemergence, 125 g ai/ha; 0 to 100 scale (0 no effect, 100 complete control), 10 days
In short: as §2

oat, wild [23] = assay: Test C postemergence; format: in vivo, Avena fatua; conditions: 10 days, 0 to 100 scale (0 no effect, 100 complete control)
In short: as §2

CCOC[C@H]1CN(C(=O)c2cc(-n3cnc(C(C)(C)C)n3)cc3c2OCO3)c2cccc(Cl)c2O1 [Compound 401]
Plant response rating, Barnyardgrass (Flood) (barnyardgrass [1]): 0
Plant response rating, Horseweed (horseweed; 500 g ai/ha, postemergence): 70
Plant response rating, Horseweed (horseweed; Postemergence, 125 g ai/ha): 60
Plant response rating, Blackgrass (blackgrass [2]; 500 g ai/ha, postemergence): 30
Plant response rating, Blackgrass (blackgrass [2]; Postemergence, 125 g ai/ha): 10
Blackgrass plant response rating (blackgrass [3]): 30
Plant response rating, Blackgrass (blackgrass [3]): 30
Pigweed, Palmer plant response rating (pigweed, palmer [4]): 100
Plant response rating, Pigweed, Palmer (pigweed, palmer [4]): 100
Plant response rating, Pigweed, Palmer (pigweed, palmer [5]; 500 g ai/ha, postemergence): 90
Plant response rating, Pigweed, Palmer (pigweed, palmer [5]; Postemergence, 125 g ai/ha): 100
Ragweed plant response rating (ragweed [6]): 60
Plant response rating, Ragweed (ragweed [6]): 0
Ryegrass, Italian plant response rating (ryegrass, Italian [7]): 90
Plant response rating, Ryegrass, Italian (ryegrass, Italian [7]): 70
Plant response rating, Ryegrass, Italian (ryegrass, Italian [8]): 0
Oat, Wild plant response rating (oat, wild [9]): 40
Plant response rating, Oat, Wild (oat, wild [9]): 0
Soybean plant response rating (soybean [10]): 40
Plant response rating, Soybean (soybean [10]): 0
Plant response rating, Rice (Flood) (rice): 0
Foxtail, Green plant response rating (green foxtail [11]): 100
Plant response rating, Foxtail, Green (green foxtail [11]): 20
Plant response rating, Kochia (kochia [12]; 500 g ai/ha, postemergence): 100
Plant response rating, Kochia (kochia [12]; Postemergence, 125 g ai/ha): 90
Kochia plant response rating (kochia [13]): 90
Plant response rating, Kochia (kochia [13]): 0
Barnyardgrass plant response rating (barnyardgrass [14]): 70
Plant response rating, Barnyardgrass (barnyardgrass [14]): 30
Plant response rating, Foxtail, Green (green foxtail [15]; 500 g ai/ha, postemergence): 20
Plant response rating, Foxtail, Green (green foxtail [15]; Postemergence, 125 g ai/ha): 10
Plant response rating, Soybean (soybean [16]): 0
Plant response rating, Corn (corn [17]; 500 g ai/ha, postemergence): 40
Plant response rating, Corn (corn [17]; Postemergence, 125 g ai/ha): 0
Plant response rating, Sedge, Umbrella (Flood) (sedge, umbrella): 0
Plant response rating, Barnyardgrass (barnyardgrass [18]; 500 g ai/ha, postemergence): 20
Plant response rating, Barnyardgrass (barnyardgrass [18]; Postemergence, 125 g ai/ha): 10
Plant response rating, Ducksalad (Flood) (ducksalad): 0
Plant response rating, Wheat (wheat [19]): 10
Wheat plant response rating (wheat [20]): 20
Plant response rating, Wheat (wheat [20]): 0
Corn plant response rating (corn [21]): 20
Plant response rating, Corn (corn [21]): 0
Plant response rating, Ragweed (ragweed [22]): 60
Plant response rating, Oat, Wild (oat, wild [23]; 500 g ai/ha, postemergence): 0
Plant response rating, Oat, Wild (oat, wild [23]; Postemergence, 125 g ai/ha): 0

CCOC[C@H]1CN(C(=O)c2cc(-n3cnc(C4CCC4)n3)cc3c2OCO3)c2cccc(Cl)c2O1 [Compound 399]
Plant response rating, Barnyardgrass (Flood) (barnyardgrass [1]): 0
Plant response rating, Horseweed (horseweed; 500 g ai/ha, postemergence): 70
Plant response rating, Horseweed (horseweed; Postemergence, 125 g ai/ha): 50
Plant response rating, Blackgrass (blackgrass [2]; 500 g ai/ha, postemergence): 20
Plant response rating, Blackgrass (blackgrass [2]; Postemergence, 125 g ai/ha): 0
Blackgrass plant response rating (blackgrass [3]): 0
Plant response rating, Blackgrass (blackgrass [3]): 0
Pigweed, Palmer plant response rating (pigweed, palmer [4]): 100
Plant response rating, Pigweed, Palmer (pigweed, palmer [4]): 100
Plant response rating, Pigweed, Palmer (pigweed, palmer [5]; 500 g ai/ha, postemergence): 100
Plant response rating, Pigweed, Palmer (pigweed, palmer [5]; Postemergence, 125 g ai/ha): 100
Ragweed plant response rating (ragweed [6]): 80
Plant response rating, Ragweed (ragweed [6]): 30
Ryegrass, Italian plant response rating (ryegrass, Italian [7]): 70
Plant response rating, Ryegrass, Italian (ryegrass, Italian [7]): 50
Plant response rating, Ryegrass, Italian (ryegrass, Italian [8]): 0
Oat, Wild plant response rating (oat, wild [9]): 30
Plant response rating, Oat, Wild (oat, wild [9]): 0
Soybean plant response rating (soybean [10]): 20
Plant response rating, Soybean (soybean [10]): 0
Plant response rating, Rice (Flood) (rice): 0
Foxtail, Green plant response rating (green foxtail [11]): 100
Plant response rating, Foxtail, Green (green foxtail [11]): 20
Plant response rating, Kochia (kochia [12]; 500 g ai/ha, postemergence): 90
Plant response rating, Kochia (kochia [12]; Postemergence, 125 g ai/ha): 90
Kochia plant response rating (kochia [13]): 70
Plant response rating, Kochia (kochia [13]): 0
Barnyardgrass plant response rating (barnyardgrass [14]): 70
Plant response rating, Barnyardgrass (barnyardgrass [14]): 10
Plant response rating, Foxtail, Green (green foxtail [15]; 500 g ai/ha, postemergence): 40
Plant response rating, Foxtail, Green (green foxtail [15]; Postemergence, 125 g ai/ha): 10
Plant response rating, Soybean (soybean [16]): 0
Plant response rating, Corn (corn [17]; 500 g ai/ha, postemergence): 10
Plant response rating, Corn (corn [17]; Postemergence, 125 g ai/ha): 0
Plant response rating, Sedge, Umbrella (Flood) (sedge, umbrella): 0
Plant response rating, Barnyardgrass (barnyardgrass [18]; 500 g ai/ha, postemergence): 30
Plant response rating, Barnyardgrass (barnyardgrass [18]; Postemergence, 125 g ai/ha): 20
Plant response rating, Ducksalad (Flood) (ducksalad): 0
Plant response rating, Wheat (wheat [19]): 20
Wheat plant response rating (wheat [20]): 10
Plant response rating, Wheat (wheat [20]): 0
Corn plant response rating (corn [21]): 0
Plant response rating, Corn (corn [21]): 0
Plant response rating, Ragweed (ragweed [22]): 70
Plant response rating, Oat, Wild (oat, wild [23]; 500 g ai/ha, postemergence): 0
Plant response rating, Oat, Wild (oat, wild [23]; Postemergence, 125 g ai/ha): 0
